Assay results as given in patent publication US6335008B1, “Hybrid genes incorporating a DNA fragment containing at least one gene encoding an insecticidal protein and a gene encoding a glutamine synthase inhibitor, plasmids, transformed cyanobacteria expressing such proteins and method for use as biocontrol agent” (priority 1987, dated 2002).

Assays:
[1] = test system: Synechocystis 6803 transformed with pWP3210; assay: Growth on BG-11 agar plate containing PPT or Bialaphos, bar gene transformant; type: cell-based; settings: Bialaphos at 5 micrograms/ml
Method: (§1) Dilution of transformed Synechocystis 6803 was plated on BG-11 agar plate containing PPT (Table 4).

[2] = test system: Synechocystis 6803 transformed with pKW 1188; assay: Growth on BG-11 agar plate containing PPT or Bialaphos, vector transformant; type: cell-based; settings: Bialaphos at 5 micrograms/ml
Method: as §1

C[C@H](NC(=O)[C@H](C)NC(=O)[C@@H](N)CCP(C)(=O)O)C(=O)O [Bialaphos]
growth on Bialaphos [1]: neither of these two transformants grow
growth on Bialaphos [2]: neither of these two transformants grow
